Laboratory results as given in patent US20160201112A1, “NANOSENSOR FOR DETECTING THE ACTIVITY OF GLYCOSAMINOGLYCAN-CLEAVING ENZYMES AND USES THEREOF” (VIRGINIA COMMONWEALTH UNIVERSITY, priority 2013, published 2016).
Entries after “also recorded” stand apart in the source; their conditions may differ.

Experiments:
[1] = system: mixture of heparitinase I, II, and III; assay: Heparitinase enzyme inhibition study, heparin disaccharides analysed by HPLC; format: biochemical; settings: 10% w/w OSCS in heparin (90% heparin + 10% w/w OSCS)
Description: (§1) Once it was established that enzyme action causes the fluorescence probe to recover from being quenched, a heparitinase enzyme inhibition study was carried out in the presence of OSCS-contaminated heparin. For this study, a mixture of heparitinase I, II, and III was incubated with (a) heparin (200 μg), (b) heparin with 10% w/w chondroitin sulfate A and C and (c) heparin with 10% w/w OSCS. The resulting oligosaccharides were then analyzed by analytical HPLC. […] The enzyme activity on the nanosensor should be maximal at low OSCS concentration and minimal at high OSCS concentration. Consequently, the fluorescence quenching of the dye should be minimal at low OSCS concentrations (and measured fluorescence should be high) and quenching should be maximal at high OSCS concentrations (and measured fluorescence should below).

heparitinase = assay: Au-heparin-dye nanosensor fluorescence assay with heparitinase and OSCS-spiked heparin (96-well plate); format: biochemical; settings: in the presence of 10% w/w OSCS
Description: as §1
In order to develop an analytical method and kit for determining contamination in heparin, serial dilutions of OSCS were performed at log increment concentrations from 0.1 μg/μL to 0.1 femtogram (fg)/μL. Next, standard heparin solutions (10 μg) were spiked serially with OSCS solutions from 1 μg (10% w/w) to 0.1 fg (10^−9% w/w) of OSCS “contamination” resulting in 11 separate tests. Heparin (10 μg) and OSCS (10 μg) were utilized as positive and negative controls, respectively. […]

oversulfated chondroitin sulfate [OSCS]
inhibition of heparitinase enzyme activity (HPLC profile of heparin disaccharides) [1]: completely inhibits the enzyme; also recorded: powerful inhibitor | heparitinase action on Au-heparin-dye nanosensor (fluorescence quenching) (heparitinase): heparitinases could not act on the Au-heparin-dye nanosensor and fluorescence quenching was maintained
